Biological target: T1, RNase L (Homo sapiens, UniProt Q05823)
T1 sequence (Q05823 1-741): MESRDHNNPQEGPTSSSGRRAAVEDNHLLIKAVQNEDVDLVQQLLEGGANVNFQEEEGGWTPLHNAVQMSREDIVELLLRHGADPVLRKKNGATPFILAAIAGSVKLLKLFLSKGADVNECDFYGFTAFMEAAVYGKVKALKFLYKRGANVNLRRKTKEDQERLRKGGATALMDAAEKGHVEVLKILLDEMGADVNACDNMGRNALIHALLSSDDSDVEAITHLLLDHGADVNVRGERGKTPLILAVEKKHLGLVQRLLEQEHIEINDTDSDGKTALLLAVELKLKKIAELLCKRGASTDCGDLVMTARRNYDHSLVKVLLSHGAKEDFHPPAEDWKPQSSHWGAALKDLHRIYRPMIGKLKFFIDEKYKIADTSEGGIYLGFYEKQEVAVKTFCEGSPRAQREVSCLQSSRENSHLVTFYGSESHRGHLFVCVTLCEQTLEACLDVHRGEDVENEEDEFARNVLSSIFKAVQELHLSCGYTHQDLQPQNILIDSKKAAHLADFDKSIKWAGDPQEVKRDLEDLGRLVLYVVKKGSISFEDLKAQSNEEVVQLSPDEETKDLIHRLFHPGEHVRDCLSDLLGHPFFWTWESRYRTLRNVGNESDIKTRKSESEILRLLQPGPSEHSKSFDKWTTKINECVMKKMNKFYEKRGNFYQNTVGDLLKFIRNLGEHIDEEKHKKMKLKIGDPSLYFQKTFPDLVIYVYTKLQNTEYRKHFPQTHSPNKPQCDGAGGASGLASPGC
Experiment: In vitro fluorescence recovery assay with model RNA (RNase L activation)
Format: biochemical
Parameters: GST; made in house
Experimental: In Vitro Fluorescent RNA Cleavage. A model RNA hairpin^15 labeled with a 5′ 6-Fluorescein (6FAM) and 3′ Black Hole Quencher (IQ4) (5′ 6FAM-[…]-3′ IQ4; 5′ FAM/3′ BHQ model RNA) (SEQ ID NO: 3) or a miR-21 Hairpin Precursor RNA labeled with a 5′ 6-Fluorescein (6FAM) and 3′ Black Hole Quencher (IQ4) (5′ 6FAM-[…] […]-3′ IQ4; 5′ FAM/3′ BHQ miR-21 Hairpin Precursor RNA) (SEQ ID NO: 4) was purchased from Chemgenes with HPLC purification. Solutions of RNA (100 nM) were folded at 65° C. for 5 min and slowly cooled to room temperature in 1×RNase L Buffer (25 mM Tris-HCl, pH 7.4, 100 mM KCl) without MgCl2, β-mercaptoethanol or ATP. After folding, the RNA was supplemented with 10 mM MgCl2, fresh 7 mM β-mercaptoethanol, and 50 μM of ATP. Next, 100 nM of RNase L, prepared as described previously^22, and various concentrations of screening compounds were prepared in 1×RNase L Buffer and added to the RNA. […] The samples were incubated at room temperature for 60 min after which the fluorescence intensity (Ex: 485 nm, Em: 525 nm) was measured using a SpectraMax M5 plate reader or Biotek FLx800 plate reader. The percentage change in fluorescence intensity, where enhancement of fluorescence intensity was indicative of RNA cleavage, was determined by calculating the percentage change in sample fluorescent signals relative to the untreated fluorescent signal (Fi, %). […]

CCOC(=O)C1=C(Nc2ccccc2)S/C(=C\c2ccc(OC)c(O)c2)C1=O [Compound 3]
RNase L activation, dose-responsive measurements: most active activator of RNase L

Source: patent publication US12617757B2, “Compounds and modules for inhibition of pre-miR-21 and their use in treatment of certain cancers” (University of Florida Research Foundation, Incorporated, priority 2019, dated 2026)
